Experimental data: US20240174691A1, “PYRIMIDINE-FUSED CYCLIC COMPOUND, PREPARATION METHOD THEREFOR AND USE THEREOF” (GENFLEET THERAPEUTICS (SHANGHAI) INC., priority 2021, published 2024)
pIC50: −log10 of the molar value.

What was measured:
Type in all cases: cell-based, human
AsPC-1 cells (KRAS G12D) = experiment: Cell proliferation inhibition assay, 3D cell model (CellTiter-Glo 3D), AsPC-1; settings: AsPC-1 3D sphere plate, 5 days incubation
Excerpt: (§1) AsPC-1 was purchased from ATCC; catalog No: CRL-1682; AGS was purchased from ATCC; catalog No: CRL-1739; RPMI1640 was purchased from Gibco; catalog No: 11875-093 2235123; F12K was purchased from Gibco; catalog No: 21127-022; FBS was purchased from Gibco; catalog No: 10099-141C; trypsin (containing EDTA) was purchased from Gibco; catalog No: 25200-072; CellTiter Glo-3D was purchased from Progema; catalog No: G9683; 384-well sphere plates were purchased from Corning; catalog No: 3830; opaque 384-well plates with a white background were purchased from Corning; catalog No: 3570; cell counters were purchased from CHEMOMETEC; model: NC-200; microplate reader was purchased from PerkinElmer; model: Envison;
(§2) AsPC-1 is an endogenous human pancreatic cancer cell containing KRAS^G12D mutation, cultured in RPMI-1640 medium containing 10% FBS; AGS is a human gastric cancer cell line containing KRAS^G12D, cultured in F-12K medium containing 10% FBS. Cells in the logarithmic growth phase were taken, digested with trypsin (containing EDTA), collected, and counted. 800 AsPC-1 cells/well or 400 AGS cells/well, respectively, were seeded in a 384-well sphere plate and cultured overnight at 5% CO2 to establish a 3D cell model. 1000× stock solutions of compounds at a 3.16-fold concentration gradient of were prepared using DMSO, diluted 100-fold into a 10× compound stock solution using the medium described above. The 10× compound stock solution was added to each cell on 2nd day after cell seeding at a final concentration of 1× and a DMSO content of 0.1%. DMSO was used as an experimental control, and the medium was used as blank. After the addition of the compounds, the cells were incubated for 5 days. 30 μl of CellTiter-Glo work solution was added to each well, mixed well, and incubated for 30 minutes. After standing at room temperature for 30 minutes, 40 μl of the mixed solution was transferred to an opaque 384-well plate with a white clear bottom. Luminescence chemiluminescence value was read by a microplate reader, and the cell proliferation inhibition rate (IR (%)=(RLU control−RLU compound)/(RLU control−RLU blank)×100%) was calculated. The gradiently diluted concentration of the compounds and corresponding cell proliferation inhibition rate were fitted using XLFit four-parameters method, and the IC50 value was calculated.

[1] = tested on: p-ERK in AGS cells containing the KRAS G12D mutation; experiment: Cell p-ERK assay (HTRF, Advance ERK phospho-T202/Y204 kit); settings: 3 hours incubation with compound
Description: AGS was purchased from ATCC; catalog No: CRL-1739; F12K was purchased from Gibco; catalog No: 21127-022; FBS was purchased from Gibco; catalog No: 10099-141C; trypsin (containing EDTA) was purchased from Gibco; catalog No: 25200-072; DMSO was purchased from VWRAMMESCO; catalog No: 0231-500ML; 96-well cell culture plates were purchased from Corning; catalog No: 3599; opaque 96-well plates with a white background were purchased from Cisbio; catalog No: 66PL96025; Advance ERK phospho-T202/Y204 kit was purchased from Cisbio; catalog No: 64AERPEH; cell counters were purchased from CHEMOMETEC; model No: NC-200; microplate reader was purchased from PerkinElmer; model No: Envison.
AGS is an endogenous human gastric adenocarcinoma cell line containing the KRAS^G12D mutation, cultured in F12K+10% FBS medium. On the first day of the experiment, cells in the logarithmic growth phase were taken, digested with trypsin (containing EDTA), collected, and counted. Approximately 20000 cells/well were seeded in a 96-well cell culture plate and cultured overnight in an incubator with 5% CO2. 1000× stock solutions of compounds at a 3.16-fold concentration gradient were prepared using DMSO, and diluted 200-fold into a 5× compound stock solution using the medium described above. The 5× compound stock solution was added to each cell culturing well the day after cell seeding at a final concentration of 1× and a DMSO content of 0.1%. DMSO was used as an experimental control. After the compound was added and the incubation was kept for 3 hours, the medium in the culture wells was removed. 50 μl of Cell lysis solution (from Advance ERK phospho-T202/Y204 kit, the same below) was added to each well, mixed well, and incubated for 30 minutes and then 16 μl of the mixed solution was transferred to an opaque 96-well plate with a white background. In addition, 16 μl of cell lysis solution was added to a well as a blank well. After transferring, 4 μl of p-ERK HTRF antibody mixture (from Advance ERK phospho-T202/Y204 kit) was added to each well. After incubation for 4 hours, HTRF fluorescence value (RLU) was read by a microplate reader, and p-ERK level inhibition rate (IR (%)=(RLU control−RLU compound)/(RLU control−RLU blank)×100%) of the compounds was calculated. The concentration of the compounds and corresponding cell p-ERK level inhibition rate were fitted using Prism 8 four-parameters method, and the IC50 value was calculated.

AGS cells (KRAS G12D) = experiment: Cell proliferation inhibition assay, 3D cell model (CellTiter-Glo 3D), AGS; settings: AGS 3D sphere plate, 5 days incubation
Excerpt: as §1, §2

Compound: CCc1cccc2cc(O)cc(-c3cc4nc(OC[C@@]56CCCN5C[C@H](F)C6)nc5c4c(n3)OC[C@@H]3[C@@H]4CC[C@H](CN53)N4)c12 [Z2, 5-ethyl-4-((5aS,6S,9R)-12-(((2R,7aS)-2-fluorotetrahydro-1H-pyrrolizin-7a(5H)-yl)methoxy)-5a,6,7,8,9,10-hexahydro-5H-4-oxa-3,10a,11,13,14-pentaaza-6,9-methanonaphtho[1,8-ab]hepten-2-yl)naphthalen-2-ol]
- pIC50 (AsPC-1 cells (KRAS G12D); Homo sapiens, ASPC1, 120 h): 6.90
- pIC50 ([1]; Homo sapiens): 7.97
- pIC50 (AGS cells (KRAS G12D); Homo sapiens, 120 h): 7.99

Compound: C#Cc1c(F)ccc2cc(O)cc(-c3nc4c5c(nc(OC[C@@]67CCCN6C[C@H](F)C7)nc5c3F)N3C[C@H]5CC[C@H](N5)[C@H]3CO4)c12 [Z131-1]
- pIC50 (AsPC-1 cells (KRAS G12D); Homo sapiens, ASPC1, 120 h): 7.48
- pIC50 ([1]; Homo sapiens): 8.80
- pIC50 (AGS cells (KRAS G12D); Homo sapiens, 120 h): 8.60

Compound: CCc1cccc2cc(O)cc(-c3nc4c5c(nc(OC[C@@]67CCCN6C[C@H](F)C7)nc5c3F)N3C[C@H]5CC[C@H](N5)[C@H]3CO4)c12 [Z140-1, 5-ethyl-4-((5aS,6S,9R)-1-fluoro-12-(((2R,7aS)-2-fluorotetrahydro-1H-pyrrolizin-7a(5H)-yl)methoxy)-5a,6,7,8,9,10-hexahydro-5H-4-oxa-3,10a,11,13,14-pentaaza-6,9-methanonaphtho[1,8-ab]hepten-2-yl)naphthalen-2-ol]
- pIC50 (AsPC-1 cells (KRAS G12D)): 7.68
- pIC50 [1]: 8.55
- pIC50 (AGS cells (KRAS G12D)): 8.40

Compound: C#Cc1cccc2cccc(-c3nc4c5c(nc(OC[C@@]67CCCN6C[C@H](F)C7)nc5c3F)N3C[C@H]5CC[C@H](N5)[C@H]3CO4)c12 [Z350, (5aS,6S,9R)-2-(8-ethynaphthalen-1-yl)-1-fluoro-12-(((2R,7aS)-2-fluorotetrahydro-1H-pyrrolizin-7a(5H)-yl)methoxy)-5a,6,7,8,9,10-hexahydro-5H-4-oxo-3,10a,11,13,14-pentaaza-6,9-methanonaphtho[1,8-ab]heptene]
- pIC50 (AsPC-1 cells (KRAS G12D); Homo sapiens, ASPC1, 120 h): 6.69
- pIC50 ([1]; Homo sapiens): 7.33
- pIC50 (AGS cells (KRAS G12D); Homo sapiens, 120 h): 6.74

Compound: CCc1cccc2cc(O)cc(-c3cc4nc(OC[C@@]56CCCN5C[C@H](F)C6)nc5c4c(c3Cl)OC[C@@H]3[C@@H]4CC[C@H](CN53)N4)c12 [Z381, 4-((5aS,6S,9R)-3-chloro-13-((2R,7aS)-2-fluorotetrahydro-1H-pyrrolizin-7a(5H)-ylmethoxy)-5a,6,7,8,9,10-hexahydro-5H-6,9-epiminoazepino[2′,1′:3,4][1, 4]oxazepino[5,6,7-de]quinazolin-2-yl)-5-ethylnaphthalen-2-ol]
- pIC50 ([1]; Homo sapiens): 6.36
